{
  "source": "patent US20150119339A1",
  "about": "“USE OF HMB TO IMPROVE HEALTH OUTCOMES FOR HOSPITALIZED PATIENTS” (ABBOTT LABORATORIES, priority 2012, published 2015)",
  "origin": "cited, not measured here",
  "conditions": "three grams of HMB; older (70±1 yr) men and women; 10 days voluntary bed rest; not statistically different",
  "data": [
    {"smiles": "CC(C)(O)CC(=O)O", "note": "[HMB, 3-hydroxy-3-methylbutanoic acid]", "values": [
      {"measurement": "loss of lean body mass", "value": "less loss of lean body mass"}
    ]}
  ]
}
